# Experimental data taken from patent US20150374767A1, “Treatment of Cancer” (priority 2013, published 2015).
# Like-named read-outs stand apart in the source and are kept apart here.
# Legend:
# [1] = test system: Virttu cell panel; assay: combination with HSV1716, DCP cell death, Chou-Talalay analysis, cell panel; assay type: cell-based, human; conditions: for number of cell lines tested in which antagonism was detected: drug + HSV1716 moi 0.5 and 0.05, cell death by DCP after 72 hours
# [2] = test system: Virttu cell line panel; assay: cells; assay type: cell-based; conditions: Homo sapiens
# [3] = test system: HuH7; assay type: cell-based, human
# [4] = test system: UVW cells; assay: DCP cell death assay, drug alone, UVW; assay type: cell-based; conditions: Homo sapiens, 72 hrs, read-out: IC50 (DCP leakage)
# [5] = test system: RCC cell lines; conditions: read-out: IC50 in RCC cell lines, reported; cited from earlier work
# [6] = test system: CP70; assay type: cell-based, human
# [7] = test system: Ovcar3; assay: DCP cell death assay, drug alone, Ovcar3; assay type: cell-based; conditions: Homo sapiens, OVCAR-3; Ovcar3, 72 hrs; read-out: IC50 (DCP leakage)
# [8] = test system: SPC111; assay: combination with HSV1716, Chou-Talalay, SPC111; assay type: cell-based, human; conditions: for synergy/antagonism with HSV1716 on cell death (Chou-Talalay): SPC111, HSV1716 moi 0.5 and 0.05, 72 hours
# [9] = test system: HSV1716gfp; assay: GFP expression during infection with HSV1716gfp (drug toxicity to virus); assay type: cell-based, herpes simplex virus
# [10] = test system: SKOV3; assay: DCP cell death assay, drug alone, SKOV3; assay type: cell-based; conditions: Homo sapiens, SK-OV-3; SKOV3, 72 hrs; read-out: IC50 (DCP leakage)
# [11] = test system: SPC-111; assay: DCP cell death assay, drug alone, SPC-111; assay type: cell-based; conditions: Homo sapiens; SPC-111, 72 hrs; read-out: IC50 (DCP leakage)
# [12] = test system: One58; assay type: cell-based, human
# [13] = test system: breast carcinoma and melanoma cell lines; conditions: read-out: IC50 in breast carcinoma and melanoma cell lines, reported; cited from earlier work
# [14] = target: VEGFR3 (Homo sapiens, UniProt P35916); conditions: cited from earlier work
# Chain of VEGFR3 (P35916 25-1363): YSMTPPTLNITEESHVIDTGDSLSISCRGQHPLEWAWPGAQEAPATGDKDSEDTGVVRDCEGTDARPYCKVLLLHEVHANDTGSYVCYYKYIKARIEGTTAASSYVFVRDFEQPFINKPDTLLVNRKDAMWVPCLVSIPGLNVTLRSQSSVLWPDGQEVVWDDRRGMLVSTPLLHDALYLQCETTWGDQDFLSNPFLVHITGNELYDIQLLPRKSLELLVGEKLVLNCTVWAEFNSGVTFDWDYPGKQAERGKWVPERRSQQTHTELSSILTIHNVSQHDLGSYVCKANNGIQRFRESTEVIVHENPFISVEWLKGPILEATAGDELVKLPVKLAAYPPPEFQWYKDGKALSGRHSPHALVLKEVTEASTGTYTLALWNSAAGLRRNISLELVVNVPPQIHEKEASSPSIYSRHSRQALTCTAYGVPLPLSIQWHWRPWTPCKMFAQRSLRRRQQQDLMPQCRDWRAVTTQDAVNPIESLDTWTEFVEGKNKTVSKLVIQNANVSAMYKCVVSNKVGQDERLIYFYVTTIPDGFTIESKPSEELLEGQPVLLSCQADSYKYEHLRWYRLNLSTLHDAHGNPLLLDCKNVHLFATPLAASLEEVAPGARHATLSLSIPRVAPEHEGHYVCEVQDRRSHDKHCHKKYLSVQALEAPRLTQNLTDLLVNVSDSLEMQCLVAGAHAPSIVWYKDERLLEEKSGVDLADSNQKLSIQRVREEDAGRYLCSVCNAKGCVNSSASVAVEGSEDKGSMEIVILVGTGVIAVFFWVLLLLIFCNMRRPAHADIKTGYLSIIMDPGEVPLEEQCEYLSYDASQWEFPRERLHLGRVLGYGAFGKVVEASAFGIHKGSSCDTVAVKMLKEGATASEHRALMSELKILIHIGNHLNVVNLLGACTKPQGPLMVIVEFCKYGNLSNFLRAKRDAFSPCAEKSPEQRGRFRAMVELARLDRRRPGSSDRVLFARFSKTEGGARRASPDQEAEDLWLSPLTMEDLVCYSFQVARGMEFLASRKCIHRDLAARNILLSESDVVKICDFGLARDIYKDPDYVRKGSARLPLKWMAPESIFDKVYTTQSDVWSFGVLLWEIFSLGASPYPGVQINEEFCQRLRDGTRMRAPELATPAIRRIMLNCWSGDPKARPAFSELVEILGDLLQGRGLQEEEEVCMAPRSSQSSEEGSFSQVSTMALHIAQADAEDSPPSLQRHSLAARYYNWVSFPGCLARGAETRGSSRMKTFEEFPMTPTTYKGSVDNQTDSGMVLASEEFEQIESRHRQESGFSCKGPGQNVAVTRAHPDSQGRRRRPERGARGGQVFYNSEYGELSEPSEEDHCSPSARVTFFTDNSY
# [15] = target: IR (Homo sapiens, UniProt P06213); conditions: cited from earlier work
# Chain of IR (P06213 28-1382): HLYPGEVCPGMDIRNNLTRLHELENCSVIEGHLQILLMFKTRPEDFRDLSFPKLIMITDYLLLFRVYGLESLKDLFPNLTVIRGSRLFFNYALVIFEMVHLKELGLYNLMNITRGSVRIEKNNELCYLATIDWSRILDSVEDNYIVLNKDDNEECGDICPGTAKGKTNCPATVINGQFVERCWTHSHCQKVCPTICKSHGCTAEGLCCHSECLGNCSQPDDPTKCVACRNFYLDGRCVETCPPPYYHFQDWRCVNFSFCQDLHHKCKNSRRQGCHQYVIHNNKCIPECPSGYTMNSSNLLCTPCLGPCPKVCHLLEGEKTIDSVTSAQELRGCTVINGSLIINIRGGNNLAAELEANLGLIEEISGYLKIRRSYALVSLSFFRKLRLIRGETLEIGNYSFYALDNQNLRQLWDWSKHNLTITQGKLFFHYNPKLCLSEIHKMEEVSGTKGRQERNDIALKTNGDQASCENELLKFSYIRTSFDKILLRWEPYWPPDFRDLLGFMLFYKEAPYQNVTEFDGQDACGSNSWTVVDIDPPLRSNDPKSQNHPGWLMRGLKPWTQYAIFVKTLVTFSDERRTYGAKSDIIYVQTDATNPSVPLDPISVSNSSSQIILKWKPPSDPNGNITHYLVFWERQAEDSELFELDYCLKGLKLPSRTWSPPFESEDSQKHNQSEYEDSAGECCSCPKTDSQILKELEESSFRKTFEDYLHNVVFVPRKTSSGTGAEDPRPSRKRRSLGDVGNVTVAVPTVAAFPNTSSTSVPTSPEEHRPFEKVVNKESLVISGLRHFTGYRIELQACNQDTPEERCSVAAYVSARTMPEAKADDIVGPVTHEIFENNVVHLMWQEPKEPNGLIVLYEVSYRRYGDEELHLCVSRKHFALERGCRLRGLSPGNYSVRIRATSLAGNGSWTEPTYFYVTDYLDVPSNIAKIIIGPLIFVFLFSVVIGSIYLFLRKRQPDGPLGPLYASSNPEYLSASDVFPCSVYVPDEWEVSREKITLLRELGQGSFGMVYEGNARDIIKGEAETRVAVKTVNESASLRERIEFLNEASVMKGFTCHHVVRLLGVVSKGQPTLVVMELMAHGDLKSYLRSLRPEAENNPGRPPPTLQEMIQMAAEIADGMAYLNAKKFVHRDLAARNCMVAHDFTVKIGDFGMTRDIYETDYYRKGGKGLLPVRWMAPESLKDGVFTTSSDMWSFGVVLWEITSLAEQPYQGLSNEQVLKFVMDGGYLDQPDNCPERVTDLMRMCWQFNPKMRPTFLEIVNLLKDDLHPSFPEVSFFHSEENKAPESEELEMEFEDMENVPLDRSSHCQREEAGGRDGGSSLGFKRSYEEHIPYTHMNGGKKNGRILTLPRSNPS
# [16] = target: Flt3^D835Y (Homo sapiens, UniProt P36888, D835Y); conditions: cited from earlier work
# [17] = test system: cells expressing low levels of EGFR or ErbB2; conditions: read-out: IC50, cells expressing low levels of EGFR or ErbB2; cited from earlier work
# [18] = test system: EGFR- or ErbB2-overexpressing cells; conditions: read-out: IC50, growth of EGFR- or ErbB2-overexpressing cells; cited from earlier work
# [19] = test system: A431 cells; conditions: read-out: IC50 in A431 cells, previously reported; cited from earlier work
# [20] = test system: human gastric carcinoma xenograft; assay: patient-derived human gastric carcinoma xenograft model; set-up: species or system mice; conditions: mouse, in vivo
# Procedure: HSV1716 (Seprehvir) was used in a personalised oncology study. Patient-derived tumour samples were obtained from a gastric carcinoma. There have been no previous in vitro or in vivo pre-clinical studies with Seprehvir in human gastric carcinoma cells/xenografts. Seprehvir was stored at −70° C., and multiple vials were provided to avoid repeated freeze/thawing.
# Two groups of 3 mice with gastric carcinoma implants were treated with 2×10^6 pfu Seprehvir by either intratumoural (IT) or intravenous (IV) routes of administration. Control mice (n=3) received no treatment and in these mice the implants grew rapidly and all were sacrificed within 18 days (FIG. 61). For IV injection, Seprehvir was administered on days 0, 3, 10 and 18, at which point the tumors were too large and the mice were sacrificed.
# For IT injection of Seprehvir, 2×10^6 pfu was administered on days 0, 3, 10, 18, 21 and 25.
# . Control mice (n=3) received no treatment and in these mice the implants grew rapidly and all were sacrificed within 18 days (FIG. 62). […]. A follow-on study with HSV1716 administering more frequent by IV dosing at the higher concentration of 10^7 pfu was performed using the same human gastric carcinoma xenograft model. […].
# Groups of 3 mice received IV injection of HSV1716 at 1×10^7 pfu on days 1, 3, 5, 8, 10, 12, 15, 17 and 19. […]
# [21] = test system: UVW; assay type: cell-based, human
# [22] = test system: U87; assay type: cell-based, human
# [23] = test system: A431; assay type: cell-based, human
# [24] = test system: Hep3B; assay type: cell-based, human
# [25] = test system: A431 cells; assay: cells; conditions: Homo sapiens, A-431, 72 h, read-out: IC50 (DCP leakage)
# [26] = test system: non-sensitive cells; conditions: read-out: IC50 for non-sensitive cells, previously reported; cited from earlier work
# [27] = test system: SKOV3; assay type: cell-based, human
# [28] = test system: HepG2-luc; assay type: cell-based, human
# [29] = test system: HCC; conditions: monotherapy of HCC; cited from earlier work
# [30] = test system: Ovcar3; assay type: cell-based, human
# [31] = test system: HCC cell lines; assay type: cell-based, human
smiles,measurement,setting,value
"Cc1ccc(Nc2nccc(N(C)c3ccc4c(C)n(C)nc4c3)n2)cc1S(N)(=O)=O [Pazopanib, 5-[[4-[(2,3-Dimethyl-2H-indazol-6-yl)methylamino]-2-pyrimidinyl]amino]-2-methylbenzolsulfonamide]",number of cell lines tested with clear synergy signals / synergism with HSV1716,[1],7/9
same,IC50,"[2]; Hep3B, HuH7, HepG2-luc, CP70, U87 and One58, 72 hrs, read-out: IC50 (DCP leakage), range",3000 to 18000 nM
same,synergy/antagonism with HSV1716 on cell death (Chou-Talalay),[3],limited synergy
same,IC50,[4],300 nM
same,IC50,[5],30000 to 60000 nM
same,synergy/antagonism with HSV1716 on cell death (Chou-Talalay),[6],synergistic
same,IC50,[7],40000 nM
same,synergy/antagonism with HSV1716 on cell death (Chou-Talalay),[8],limited synergy
same,effect on GFP expression during HSV1716gfp infection,"[9]; CP70, moi 0.5 and 0.05, 72 hrs",stimulated GFP expression
same,effect on GFP expression during HSV1716gfp infection,"[9]; HepG2-luc, both moi (0.5 and 0.05), 72 hrs",little effect on GFP expression
same,effect on GFP expression during HSV1716gfp infection,"[9]; HuH7, moi 0.05, 72 hrs",more potent inhibitory effect
same,effect on GFP expression during HSV1716gfp infection,"[9]; HuH7, moi 0.5, 72 hrs",inhibited GFP expression
same,effect on GFP expression during HSV1716gfp infection,"[9]; One58, moi 0.05, 72 hrs",more potent inhibitory effect
same,effect on GFP expression during HSV1716gfp infection,"[9]; One58, moi 0.5, 72 hrs",inhibited GFP expression
same,effect on GFP expression during HSV1716gfp infection,"[9]; Ovcar3, moi 0.05, 72 hrs",more potent inhibitory effect
same,effect on GFP expression during HSV1716gfp infection,"[9]; Ovcar3, moi 0.5, 72 hrs",inhibited GFP expression
same,effect on GFP expression during HSV1716gfp infection,"[9]; SKOV3, moi 0.05, 72 hrs",no inhibitory effects
same,effect on GFP expression during HSV1716gfp infection,"[9]; SKOV3, moi 0.5, 72 hrs",inhibited GFP expression
same,effect on GFP expression during HSV1716gfp infection,"[9]; UVW, moi 0.05, 72 hrs",no inhibitory effects
same,effect on GFP expression during HSV1716gfp infection,"[9]; UVW, moi 0.5, 72 hrs",inhibited GFP expression
same,IC50,[10],40000 nM
same,IC50,[11],40000 nM
same,synergy/antagonism with HSV1716 on cell death (Chou-Talalay),[12],synergistic
same,IC50,[13],1000 to 10000 nM
"CCn1c(N)c(C(=O)NC)c(=O)c2ccc(C#C[C@@](C)(O)COC)nc21 [SAR131675, (R)-2-amino-1-ethyl-7-(3-hydroxy-4-methoxy-3-methylbut-1-ynyl)-N-methyl-4-oxo-1,4-dihydro-1,8-naphthyridine-3-carboxamide]",IC50,[14],20 nM
"CC(C)(C)c1cc(C=C(C#N)C#N)cc(Br)c1O [AG-1024, 2-(3-bromo-5-tert-butyl-4-hydroxybenzylidene)malononitrile]",IC50,[15],100 nM
"S=C(NCc1ccc2c(c1)OCO2)N1CCN(c2ncnc3c2oc2ccccc23)CC1 [Amuvatinib, N-(benzo[d][1,3]dioxol-5-ylmethyl)-4-(benzofuro[3,2-d]pyrimidin-4-yl)piperazine-1-carbothioamide]",IC50,[16],81 nM
"CS(=O)(=O)CCNCc1ccc(-c2ccc3ncnc(Nc4ccc(OCc5cccc(F)c5)c(Cl)c4)c3c2)o1 [Lapatinib, N-[3-chloro-4-[(3-fluorophenyl)methoxy]phenyl]-6-[5-[(2-methylsulfonylethylamino)methyl]-2-furyl]quinazolin-4-amine]",number of cell lines tested in which antagonism was detected,[1],8 of the 10
same,IC50,[17],3000 to 12000 nM
same,IC50,[18],90 to 210 nM
same,IC50,[19],160 nM
same,tumour growth inhibition,[20],some tumour growth inhibition until day 6
same,IC50,"[2]; A-431, 72 h, read-out: IC50 (DCP leakage), range",4000 to 30000 nM
same,synergy/antagonism with HSV1716 on cell death (Chou-Talalay),[21],strongly synergistic
same,number of synergistic combinations out of 8,[22],2/8
same,synergy/antagonism with HSV1716 on cell death (Chou-Talalay),[22],some synergy
same,number of synergistic combinations out of 8,[23],1/8
same,synergy/antagonism with HSV1716 on cell death (Chou-Talalay),[23],some synergy
same,synergy/antagonism with HSV1716 on cell death (Chou-Talalay),[24],strongly synergistic
same,IC50,[25],150 nM
"C#Cc1cccc(Nc2ncnc3cc(OCCOC)c(OCCOC)cc23)c1 [Erlotinib, N-(3-ethynylphenyl)-6,7-bis(2-methoxyethoxy)quinazolin-4-amine]",overall synergy/antagonism with HSV1716 on cell death,[1],mostly antagonistic
same,number of cell lines tested in which antagonism was detected,[1],9 out of 10
same,IC50,[26],> 10000 nM
same,IC50,"[2]; A-431, all other cell lines (other than A431), 72 hours, read-out: IC50 (DCP leakage), range",1000 to 25000 nM
same,number of synergistic combinations out of 8,[3],1/8
same,synergy/antagonism with HSV1716 on cell death (Chou-Talalay),[3],limited synergy
same,synergy/antagonism with HSV1716 on cell death (Chou-Talalay),[22],synergistic
same,synergy/antagonism with HSV1716 on cell death (Chou-Talalay),[8],limited synergy
same,number of synergistic combinations out of 8,"[8]; SPC111, synergy at moi 0.05",1/8
same,number of synergistic combinations out of 8,[27],1/8
same,synergy/antagonism with HSV1716 on cell death (Chou-Talalay),[27],limited synergy
"CNC(=O)c1cc(Oc2ccc(NC(=O)Nc3ccc(Cl)c(C(F)(F)F)c3)cc2)ccn1 [Sorafenib, 4-[4-[[4-chloro-3-(trifluoromethyl)phenyl]carbamoylamino]phenoxy]-N-methyl-pyridine-2-carboxamide]",number of cell lines tested with clear synergy signals / synergism with HSV1716,[1],8/10
same,synergy/antagonism with HSV1716 on cell death (Chou-Talalay),[28],synergistically
same,IC50,"[2]; most/all cell lines of panel, 72 hrs, read-out: IC50 (DCP leakage), range over cell lines",1000 to 10000 nM
same,prolongation of median survival and time to progression,[29],~3 months
same,reduction of the risk of death during year 1,[29],31%
same,synergy/antagonism with HSV1716 on cell death (Chou-Talalay),[3],synergistically
same,IC50,[4],100 nM
same,synergy/antagonism with HSV1716 on cell death (Chou-Talalay),[30],synergies occurred
same,synergy/antagonism with HSV1716 on cell death (Chou-Talalay),[21],no synergies
same,synergy/antagonism with HSV1716 on cell death (Chou-Talalay),[6],synergies occurred
same,synergy with HSV1716 on cell death (Chou-Talalay),[31],strongly synergistic
same,effect on GFP expression during HSV1716gfp infection,"[9]; CP70, moi 0.05, 72 hrs",more marked inhibitory effect
same,effect on GFP expression during HSV1716gfp infection,"[9]; Hep3B, moi 0.05, 72 hrs",more marked inhibitory effect
same,effect on GFP expression during HSV1716gfp infection,"[9]; HuH7, moi 0.05, 72 hrs",small inhibitory effect at the 2.5 μM Sorafenib concentration
same,effect on GFP expression during HSV1716gfp infection,"[9]; One58, moi 0.05, 72 hrs",more marked inhibitory effect
same,effect on GFP expression during HSV1716gfp infection,"[9]; Ovcar3, moi 0.05, 72 hrs",more marked inhibitory effect
same,effect on GFP expression during HSV1716gfp infection,"[9]; SKOV3, moi 0.05, 72 hrs",no effect on GFP expression
same,effect on GFP expression during HSV1716gfp infection,"[9]; SPC111, moi 0.05, 72 hrs",more marked inhibitory effect
same,effect on GFP expression during HSV1716gfp infection,"[9]; U87, moi 0.05, 72 hrs",small inhibitory effect at the 2.5 μM Sorafenib concentration
same,effect on GFP expression during HSV1716gfp infection,"[9]; UVW, moi 0.05, 72 hrs",no effect on GFP expression
same,effect on GFP expression during HSV1716gfp infection,"[9]; all cell lines tested, moi 0.5, 72 hrs",little effect on GFP expression
same,synergy/antagonism with HSV1716 on cell death (Chou-Talalay),[12],no synergies
same,synergy/antagonism with HSV1716 on cell death (Chou-Talalay),[24],synergistically
